This note sets out measurements from US9340590B2 (priority 2011, dated 2016).

Positions of bridges follow the written chain, without caps; N, C: chain ends. Non-standard residues stand in square brackets, D forms with d. Residues, ends and D or L forms follow the SMILES beside them. Trp(1-Me) = Cn1cc(C[C@H](N)C(=O)O)c2ccccc21; 2Pal = N[C@@H](Cc1ccccn1)C(=O)O; Cha = N[C@@H](CC1CCCCC1)C(=O)O; Phg = N[C@H](C(=O)O)c1ccccc1

Holding throughout (experiment): cell-based
For one assay, the target named is hNav1.7 (Homo sapiens, UniProt Q15858). Type of assay: cell-based. The conditions noted are these: IonWorks Quattro, use-dependent; […]; read-out: IWQ Use Nav1.7.
In the next assay the target is hNav1.5 (Homo sapiens, UniProt Q14524). The conditions noted are these: IonWorks Quattro, use-dependent; […]; read-out: IWQ Use Nav1.5.
The next assay concerns the target hNav1.3 (Homo sapiens, UniProt Q9NY46). To be noted: IonWorks Quattro, use-dependent; […]; read-out: IWQ Use Nav1.3.

Sequence of hNav1.7 (Q15858 whole entry, looked up): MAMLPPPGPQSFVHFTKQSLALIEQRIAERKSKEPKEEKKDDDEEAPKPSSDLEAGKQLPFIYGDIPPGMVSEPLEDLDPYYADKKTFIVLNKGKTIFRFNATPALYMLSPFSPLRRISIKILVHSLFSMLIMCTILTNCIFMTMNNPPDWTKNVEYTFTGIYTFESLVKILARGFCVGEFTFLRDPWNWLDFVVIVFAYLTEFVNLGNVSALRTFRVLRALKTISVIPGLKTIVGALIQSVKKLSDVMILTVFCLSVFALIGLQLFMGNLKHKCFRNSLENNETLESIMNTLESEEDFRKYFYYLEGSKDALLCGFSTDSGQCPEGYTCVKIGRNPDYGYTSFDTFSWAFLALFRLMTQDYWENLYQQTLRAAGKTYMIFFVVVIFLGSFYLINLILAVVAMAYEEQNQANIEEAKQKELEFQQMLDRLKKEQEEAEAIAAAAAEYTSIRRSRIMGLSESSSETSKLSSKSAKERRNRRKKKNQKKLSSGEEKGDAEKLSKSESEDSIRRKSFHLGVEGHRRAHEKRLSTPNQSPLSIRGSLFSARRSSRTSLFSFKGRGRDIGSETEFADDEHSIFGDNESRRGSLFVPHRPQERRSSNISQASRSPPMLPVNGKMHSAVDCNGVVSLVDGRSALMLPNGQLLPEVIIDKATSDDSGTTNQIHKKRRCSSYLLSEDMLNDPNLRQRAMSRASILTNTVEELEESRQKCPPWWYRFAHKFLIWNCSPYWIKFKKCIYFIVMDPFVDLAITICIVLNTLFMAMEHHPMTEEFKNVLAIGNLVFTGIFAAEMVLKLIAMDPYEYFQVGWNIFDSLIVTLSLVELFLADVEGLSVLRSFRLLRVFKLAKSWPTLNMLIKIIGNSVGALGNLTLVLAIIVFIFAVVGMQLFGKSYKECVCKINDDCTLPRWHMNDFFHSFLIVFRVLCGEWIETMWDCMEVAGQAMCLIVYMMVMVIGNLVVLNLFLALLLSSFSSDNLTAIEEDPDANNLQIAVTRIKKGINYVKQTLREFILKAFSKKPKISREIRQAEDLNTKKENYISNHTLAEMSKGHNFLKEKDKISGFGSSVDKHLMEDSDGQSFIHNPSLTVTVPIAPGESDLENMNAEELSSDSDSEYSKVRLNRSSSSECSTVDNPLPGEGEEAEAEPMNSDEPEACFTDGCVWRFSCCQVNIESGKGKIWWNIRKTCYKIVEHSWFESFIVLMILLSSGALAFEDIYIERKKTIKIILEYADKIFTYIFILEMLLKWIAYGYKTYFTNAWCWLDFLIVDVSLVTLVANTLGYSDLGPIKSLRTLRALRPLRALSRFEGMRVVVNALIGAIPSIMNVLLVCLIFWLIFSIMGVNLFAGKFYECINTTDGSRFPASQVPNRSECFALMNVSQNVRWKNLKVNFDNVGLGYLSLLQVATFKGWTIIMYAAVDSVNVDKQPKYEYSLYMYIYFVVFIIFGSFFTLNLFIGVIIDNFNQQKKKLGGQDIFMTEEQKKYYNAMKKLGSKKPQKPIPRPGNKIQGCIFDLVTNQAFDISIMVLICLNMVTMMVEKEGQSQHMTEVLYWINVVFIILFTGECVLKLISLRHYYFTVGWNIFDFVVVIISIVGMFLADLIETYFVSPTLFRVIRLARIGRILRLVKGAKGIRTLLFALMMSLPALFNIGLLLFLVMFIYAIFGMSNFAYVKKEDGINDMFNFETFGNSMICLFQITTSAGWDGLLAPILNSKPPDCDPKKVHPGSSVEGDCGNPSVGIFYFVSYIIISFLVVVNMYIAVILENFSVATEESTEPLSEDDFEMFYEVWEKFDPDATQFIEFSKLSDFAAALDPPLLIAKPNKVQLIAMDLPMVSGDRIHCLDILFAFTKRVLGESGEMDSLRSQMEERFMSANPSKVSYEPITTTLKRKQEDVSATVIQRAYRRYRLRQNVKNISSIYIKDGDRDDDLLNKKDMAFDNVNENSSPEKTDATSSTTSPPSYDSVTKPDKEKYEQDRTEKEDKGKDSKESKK
Sequence of hNav1.3 (Q9NY46 whole entry, looked up): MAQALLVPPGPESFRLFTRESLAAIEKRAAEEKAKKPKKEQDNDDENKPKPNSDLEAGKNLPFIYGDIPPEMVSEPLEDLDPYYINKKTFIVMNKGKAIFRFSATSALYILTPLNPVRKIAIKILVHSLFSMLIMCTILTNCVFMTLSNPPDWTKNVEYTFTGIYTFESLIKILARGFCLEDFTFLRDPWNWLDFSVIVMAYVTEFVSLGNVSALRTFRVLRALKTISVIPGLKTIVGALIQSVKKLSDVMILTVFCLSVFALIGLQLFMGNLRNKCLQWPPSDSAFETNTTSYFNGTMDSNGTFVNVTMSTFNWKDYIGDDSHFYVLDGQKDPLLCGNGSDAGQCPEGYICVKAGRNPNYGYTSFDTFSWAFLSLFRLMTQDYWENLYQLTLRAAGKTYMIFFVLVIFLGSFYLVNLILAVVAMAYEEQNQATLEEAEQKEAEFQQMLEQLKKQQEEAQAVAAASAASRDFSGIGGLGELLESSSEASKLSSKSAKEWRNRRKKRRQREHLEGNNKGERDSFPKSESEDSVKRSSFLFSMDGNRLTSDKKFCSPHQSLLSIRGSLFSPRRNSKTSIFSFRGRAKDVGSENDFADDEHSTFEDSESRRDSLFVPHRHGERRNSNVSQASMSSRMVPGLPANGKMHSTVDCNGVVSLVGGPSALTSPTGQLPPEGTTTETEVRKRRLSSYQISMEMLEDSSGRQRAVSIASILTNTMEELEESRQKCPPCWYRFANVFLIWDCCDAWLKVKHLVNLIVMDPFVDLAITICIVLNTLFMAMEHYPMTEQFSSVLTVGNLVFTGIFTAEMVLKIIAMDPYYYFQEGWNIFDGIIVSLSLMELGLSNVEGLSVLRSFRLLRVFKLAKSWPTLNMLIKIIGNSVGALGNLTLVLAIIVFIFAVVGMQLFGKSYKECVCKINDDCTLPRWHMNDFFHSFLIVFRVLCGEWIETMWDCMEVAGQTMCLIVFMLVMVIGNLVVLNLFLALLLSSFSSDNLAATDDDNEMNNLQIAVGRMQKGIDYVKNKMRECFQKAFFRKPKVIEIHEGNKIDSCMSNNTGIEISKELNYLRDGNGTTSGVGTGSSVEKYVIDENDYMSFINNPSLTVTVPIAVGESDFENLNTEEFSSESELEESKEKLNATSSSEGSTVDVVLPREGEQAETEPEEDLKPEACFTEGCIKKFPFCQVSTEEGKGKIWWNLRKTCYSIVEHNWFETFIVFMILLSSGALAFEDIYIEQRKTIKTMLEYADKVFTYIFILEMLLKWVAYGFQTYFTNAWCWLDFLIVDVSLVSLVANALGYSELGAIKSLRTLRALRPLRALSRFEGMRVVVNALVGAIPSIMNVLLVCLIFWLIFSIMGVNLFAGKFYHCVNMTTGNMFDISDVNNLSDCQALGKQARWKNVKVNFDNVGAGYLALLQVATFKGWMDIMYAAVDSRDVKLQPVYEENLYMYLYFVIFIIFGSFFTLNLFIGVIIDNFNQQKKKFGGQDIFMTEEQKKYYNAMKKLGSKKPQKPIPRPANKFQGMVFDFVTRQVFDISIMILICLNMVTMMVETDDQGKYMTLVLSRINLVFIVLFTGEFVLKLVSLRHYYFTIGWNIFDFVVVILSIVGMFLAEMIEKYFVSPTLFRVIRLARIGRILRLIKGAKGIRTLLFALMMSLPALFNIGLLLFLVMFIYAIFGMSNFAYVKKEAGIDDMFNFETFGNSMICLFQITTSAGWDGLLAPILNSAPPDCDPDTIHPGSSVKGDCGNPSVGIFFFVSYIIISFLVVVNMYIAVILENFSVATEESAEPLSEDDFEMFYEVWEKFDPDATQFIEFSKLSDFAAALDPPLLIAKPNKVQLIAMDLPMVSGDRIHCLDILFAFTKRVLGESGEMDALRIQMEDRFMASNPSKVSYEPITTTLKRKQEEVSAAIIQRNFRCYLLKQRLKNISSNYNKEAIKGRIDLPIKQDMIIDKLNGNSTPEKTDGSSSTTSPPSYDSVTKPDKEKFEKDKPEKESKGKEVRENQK

On to `CC[C@H](C)[C@@H]1NC(=O)[C@@H]2CSSC[C@@H]3NC(=O)[C@H](C(C)C)NC(=O)[C@H](CC(C)C)NC(=O)[C@H](CC(N)=O)NC(=O)[C@@H]4CCCN4C(=O)[C@H](CCCNC(=N)N)NC(=O)[C@H](CSSC[C@H](NC(=O)[C@@H](N)CC(=O)O)C(=O)N[C@@H](CC(C)C)C(=O)NCC(=O)N[C@@H](Cc4ccccc4)C(=O)N[C@@H](CCSC)C(=O)N[C@@H](CCCNC(=N)N)C(=O)N[C@@H](CCCCN)C(=O)N2)NC(=O)[C@H](CSSC[C@@H](C(=O)N[C@@H](CCCCN)C(=O)N[C@@H](Cc2ccc(O)cc2)C(=O)N[C@H](C(=O)N[C@@H](CC2CCCCC2)C(N)=O)C(C)C)NC(=O)[C@H](Cc2c[nH]c4ccccc24)NC(=O)[C@H](CCCCN)NC(=O)[C@H](Cc2c[nH]cn2)NC(=O)[C@H]([C@@H](C)O)NC(=O)[C@H](CCCNC(=N)N)NC(=O)[C@H](CO)NC3=O)NC(=O)[C@H](CCCCN)NC(=O)[C@H](CC(=O)O)NC(=O)[C@H](CC(N)=O)NC(=O)[C@H](CC(=O)O)NC(=O)[C@@H]2CCCN2C1=O` [compound 405] (H-DCLGFMRKCIPDNDKCCRPNLVCSRTHKWCKYV[Cha]-NH2; disulfide 2-17, 9-23, 16-30), for which the IC50 on hNav1.7 was 0.02 µM; at hNav1.5 it was 5.53 µM; on hNav1.3, 0.01 µM.
As to `CC[C@H](C)[C@@H]1NC(=O)[C@@H]2CSSC[C@@H]3NC(=O)[C@H](C(C)C)NC(=O)[C@H](CC(C)C)NC(=O)[C@H](CC(N)=O)NC(=O)[C@@H]4CCCN4C(=O)[C@H](CCCNC(=N)N)NC(=O)[C@H](CSSC[C@H](NC(=O)[C@@H](N)CC(=O)O)C(=O)N[C@@H](CC(C)C)C(=O)NCC(=O)N[C@@H](Cc4ccccc4)C(=O)N[C@@H](CCSC)C(=O)N[C@@H](CCCNC(=N)N)C(=O)N[C@@H](CCCCN)C(=O)N2)NC(=O)[C@H](CSSC[C@@H](C(=O)N[C@@H](CCCCN)C(=O)N[C@@H](Cc2ccc(O)cc2)C(=O)N[C@H](C(=O)N[C@H](C(N)=O)c2ccccc2)C(C)C)NC(=O)[C@H](Cc2c[nH]c4ccccc24)NC(=O)[C@H](CCCCN)NC(=O)[C@H](Cc2c[nH]cn2)NC(=O)[C@H]([C@@H](C)O)NC(=O)[C@H](CCCNC(=N)N)NC(=O)[C@H](CO)NC3=O)NC(=O)[C@H](CCCCN)NC(=O)[C@H](CC(=O)O)NC(=O)[C@H](CC(N)=O)NC(=O)[C@H](CC(=O)O)NC(=O)[C@@H]2CCCN2C1=O` [compound 406] (H-DCLGFMRKCIPDNDKCCRPNLVCSRTHKWCKYV[Phg]-NH2; disulfide 2-17, 9-23, 16-30), the IC50 at hNav1.7 is 0.04 µM; at hNav1.5, 5.95 µM; at hNav1.3, 0.02 µM.
The corresponding values for `CC[C@H](C)[C@@H]1NC(=O)[C@@H]2CSSC[C@@H]3NC(=O)[C@H](C(C)C)NC(=O)[C@H](CC(C)C)NC(=O)[C@H](CC(N)=O)NC(=O)[C@@H]4CCCN4C(=O)[C@H](CCCNC(=N)N)NC(=O)[C@H](CSSC[C@H](NC(=O)[C@@H](N)CC(=O)O)C(=O)N[C@@H](CC(C)C)C(=O)NCC(=O)N[C@@H](Cc4ccccc4)C(=O)N[C@@H](CCSC)C(=O)N[C@@H](CCCNC(=N)N)C(=O)N[C@@H](CCCCN)C(=O)N2)NC(=O)[C@H](CSSC[C@@H](C(=O)N[C@@H](CCCCN)C(=O)N[C@@H](Cc2ccc(O)cc2)C(=O)N[C@H](C(=O)N(C)[C@@H](Cc2ccccc2)C(N)=O)C(C)C)NC(=O)[C@H](Cc2c[nH]c4ccccc24)NC(=O)[C@H](CCCCN)NC(=O)[C@H](Cc2c[nH]cn2)NC(=O)[C@H]([C@@H](C)O)NC(=O)[C@H](CCCNC(=N)N)NC(=O)[C@H](CO)NC3=O)NC(=O)[C@H](CCCCN)NC(=O)[C@H](CC(=O)O)NC(=O)[C@H](CC(N)=O)NC(=O)[C@H](CC(=O)O)NC(=O)[C@@H]2CCCN2C1=O` [compound 408] are 10 µM, 18.8 µM and 4.56 µM.
The corresponding values for `CC[C@H](C)[C@@H]1NC(=O)[C@@H]2CSSC[C@@H]3NC(=O)[C@H](C(C)C)NC(=O)[C@H](CC(C)C)NC(=O)[C@H](CC(N)=O)NC(=O)[C@@H]4CCCN4C(=O)[C@H](CCCNC(=N)N)NC(=O)[C@H](CSSC[C@H](NC(=O)[C@@H](N)CC(=O)O)C(=O)N[C@@H](CC(C)C)C(=O)NCC(=O)N[C@@H](Cc4ccccc4)C(=O)N[C@@H](CCSC)C(=O)N[C@@H](CCCNC(=N)N)C(=O)N[C@@H](CCCCN)C(=O)N2)NC(=O)[C@H](CSSC[C@@H](C(=O)N[C@@H](CCCCN)C(=O)N[C@@H](Cc2ccc(O)cc2)C(=O)N[C@H](C(=O)N[C@@H](Cc2cn(C)c4ccccc24)C(N)=O)C(C)C)NC(=O)[C@H](Cc2c[nH]c4ccccc24)NC(=O)[C@H](CCCCN)NC(=O)[C@H](Cc2c[nH]cn2)NC(=O)[C@H]([C@@H](C)O)NC(=O)[C@H](CCCNC(=N)N)NC(=O)[C@H](CO)NC3=O)NC(=O)[C@H](CCCCN)NC(=O)[C@H](CC(=O)O)NC(=O)[C@H](CC(N)=O)NC(=O)[C@H](CC(=O)O)NC(=O)[C@@H]2CCCN2C1=O` [compound 409] (H-DCLGFMRKCIPDNDKCCRPNLVCSRTHKWCKYV[Trp(1-Me)]-NH2; disulfide 2-17, 9-23, 16-30) are 0.09 µM, 5.61 µM and 0.07 µM.
The corresponding values for `CC[C@H](C)[C@@H]1NC(=O)[C@@H]2CSSC[C@@H]3NC(=O)[C@H](C(C)C)NC(=O)[C@H](CC(C)C)NC(=O)[C@H](CC(N)=O)NC(=O)[C@@H]4CCCN4C(=O)[C@H](CCCNC(=N)N)NC(=O)[C@H](CSSC[C@H](NC(=O)[C@@H](N)CC(=O)O)C(=O)N[C@@H](CC(C)C)C(=O)NCC(=O)N[C@@H](Cc4ccccc4)C(=O)N[C@@H](CCSC)C(=O)N[C@@H](CCCNC(=N)N)C(=O)N[C@@H](CCCCN)C(=O)N2)NC(=O)[C@H](CSSC[C@@H](C(=O)N[C@@H](CCCCN)C(=O)N[C@@H](Cc2ccc(O)cc2)C(=O)N[C@H](C(=O)N[C@@H](Cc2ccc(C(=O)O)cc2)C(N)=O)C(C)C)NC(=O)[C@H](Cc2c[nH]c4ccccc24)NC(=O)[C@H](CCCCN)NC(=O)[C@H](Cc2c[nH]cn2)NC(=O)[C@H]([C@@H](C)O)NC(=O)[C@H](CCCNC(=N)N)NC(=O)[C@H](CO)NC3=O)NC(=O)[C@H](CCCCN)NC(=O)[C@H](CC(=O)O)NC(=O)[C@H](CC(N)=O)NC(=O)[C@H](CC(=O)O)NC(=O)[C@@H]2CCCN2C1=O` [compound 410] are 9.19 µM, 7.11 µM and 6.31 µM.
With `CC[C@H](C)[C@@H]1NC(=O)[C@@H]2CSSC[C@@H]3NC(=O)[C@H](C(C)C)NC(=O)[C@H](CC(C)C)NC(=O)[C@H](CC(N)=O)NC(=O)[C@@H]4CCCN4C(=O)[C@H](CCCNC(=N)N)NC(=O)[C@H](CSSC[C@H](NC(=O)[C@@H](N)CC(=O)O)C(=O)N[C@@H](CC(C)C)C(=O)NCC(=O)N[C@@H](Cc4ccccc4)C(=O)N[C@@H](CCSC)C(=O)N[C@@H](CCCNC(=N)N)C(=O)N[C@@H](CCCCN)C(=O)N2)NC(=O)[C@H](CSSC[C@@H](C(=O)N[C@@H](CCCCN)C(=O)N[C@@H](Cc2ccc(O)cc2)C(=O)N[C@H](C(=O)N[C@@H](Cc2ccccn2)C(N)=O)C(C)C)NC(=O)[C@H](Cc2c[nH]c4ccccc24)NC(=O)[C@H](CCCCN)NC(=O)[C@H](Cc2c[nH]cn2)NC(=O)[C@H]([C@@H](C)O)NC(=O)[C@H](CCCNC(=N)N)NC(=O)[C@H](CO)NC3=O)NC(=O)[C@H](CCCCN)NC(=O)[C@H](CC(=O)O)NC(=O)[C@H](CC(N)=O)NC(=O)[C@H](CC(=O)O)NC(=O)[C@@H]2CCCN2C1=O` [compound 411] (H-DCLGFMRKCIPDNDKCCRPNLVCSRTHKWCKYV[2Pal]-NH2; disulfide 2-17, 9-23, 16-30), the IC50 came out at 5.82 µM at hNav1.7, 8.16 µM on hNav1.5 and 4.83 µM on hNav1.3.
